Measured values from PubChem BioAssay (NCI).
“And” between values parts separate entries of the source, which are not always exact repeats. Equal values may be shown once.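 Here, GI50 denotes the concentration required for 50% inhibition of growth. The concentration for full growth arrest is given as TGI.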

Experiments:
Assay in all cases: inhibition of tumour cell growth, NCI panel, 384-well format
SNB-75 CNS = system: SNB-75 CNS
ACHN renal = system: ACHN renal
U251 glioblastoma = system: U251 glioblastoma
NCI-H226 lung = system: NCI-H226 lung
NCI-H322M lung = system: NCI-H322M lung
HS 578T breast = system: HS 578T breast
SK-MEL-2 melanoma = system: SK-MEL-2 melanoma
K-562 leukemia = system: K-562 leukemia
BT-549 breast = system: BT-549 breast
OVCAR-3 ovarian = system: OVCAR-3 ovarian
RXF 393 renal = system: RXF 393 renal
HCC-2998 colon = system: HCC-2998 colon
EKVX NSCLC = system: EKVX NSCLC
SF-268 CNS = system: SF-268 CNS
NCI/ADR-RES ovarian = system: NCI/ADR-RES ovarian
SNB-19 CNS = system: SNB-19 CNS
A498 renal = system: A498 renal
SN12C renal = system: SN12C renal
T-47D breast = system: T-47D breast
SF-539 CNS = system: SF-539 CNS
HOP-62 NSCLC = system: HOP-62 NSCLC
COLO 205 colon = system: COLO 205 colon
NCI-H23 lung = system: NCI-H23 lung
OVCAR-4 ovarian = system: OVCAR-4 ovarian
HOP-92 NSCLC = system: HOP-92 NSCLC
UACC-257 melanoma = system: UACC-257 melanoma
A549 NSCLC = system: A549 NSCLC
RPMI-8226 leukemia = system: RPMI-8226 leukemia
SK-OV-3 ovarian = system: SK-OV-3 ovarian
SR leukemia = system: SR leukemia
CCRF-CEM leukemia = system: CCRF-CEM leukemia
PC-3 prostate = system: PC-3 prostate
MOLT-4 leukemia = system: MOLT-4 leukemia
MDA-MB-468 breast = system: MDA-MB-468 breast
HL-60(TB) leukemia = system: HL-60(TB) leukemia
OVCAR-5 ovarian = system: OVCAR-5 ovarian
MALME-3M melanoma = system: MALME-3M melanoma
OVCAR-8 ovarian = system: OVCAR-8 ovarian
SF-295 CNS = system: SF-295 CNS
NCI-H522 lung = system: NCI-H522 lung
MDA-MB-435 melanoma = system: MDA-MB-435 melanoma
M14 melanoma = system: M14 melanoma
MDA-MB-231 breast = system: MDA-MB-231 breast
KM12 colon = system: KM12 colon
LOX IMVI melanoma = system: LOX IMVI melanoma
UACC-62 melanoma = system: UACC-62 melanoma
786-0 renal = system: 786-0 renal
CAKI-1 renal = system: CAKI-1 renal
SK-MEL-28 melanoma = system: SK-MEL-28 melanoma
DU-145 prostate = system: DU-145 prostate
HT29 colon = system: HT29 colon

Compound: CC(=O)c1c(C)c2cnc(Nc3ccc(N4CCNCC4)cn3)nc2n(C2CCCC2)c1=O
- TGI (SNB-75 CNS): 14.2 µM and > 100 µM
- GI50 (ACHN renal): 0.976 µM and 3.18 µM
- TGI (U251 glioblastoma): 12.2 µM and > 100 µM
- TGI (NCI-H226 lung): 13.1 µM and > 100 µM
- TGI (NCI-H322M lung): 14.5 µM and > 100 µM
- GI50 (HS 578T breast): 10.1 µM and > 100 µM
- TGI (HS 578T breast): 17.2 µM and > 100 µM
- GI50 (SK-MEL-2 melanoma): 9.24 µM
- TGI (SK-MEL-2 melanoma): 16.2 µM
- GI50 (K-562 leukemia): 2.64 µM
- TGI (K-562 leukemia): 9.38 µM
- TGI (BT-549 breast): 14.3 µM and > 100 µM
- TGI (OVCAR-3 ovarian): 16.4 µM and > 100 µM
- GI50 (RXF 393 renal): 11.4 µM and > 100 µM
- TGI (RXF 393 renal): 18.7 µM and > 100 µM
- TGI (HCC-2998 colon): 10.9 µM and > 100 µM
- TGI (EKVX NSCLC): 15.4 µM and > 100 µM
- TGI (SF-268 CNS): 13 µM and > 100 µM
- TGI (NCI/ADR-RES ovarian): 17.1 µM and > 100 µM
- TGI (SNB-19 CNS): 13.9 µM and > 100 µM
- TGI (A498 renal): 13.1 µM and > 100 µM
- TGI (SN12C renal): 13.3 µM and > 100 µM
- TGI (T-47D breast): 14.8 µM and > 100 µM
- TGI (SF-539 CNS): 16.7 µM and > 100 µM
- TGI (HOP-62 NSCLC): 13.7 µM and > 100 µM
- TGI (COLO 205 colon): 11 µM and > 100 µM
- TGI (NCI-H23 lung): 15.1 µM and > 100 µM
- GI50 (OVCAR-4 ovarian): 11.2 µM and > 100 µM
- TGI (OVCAR-4 ovarian): 18.6 µM and > 100 µM
- TGI (HOP-92 NSCLC): 15 µM and > 100 µM
- TGI (UACC-257 melanoma): 13.3 µM and > 100 µM
- TGI (A549 NSCLC): 10.8 µM and > 100 µM
- GI50 (RPMI-8226 leukemia): 0.422 µM
- TGI (RPMI-8226 leukemia): > 100 µM
- TGI (SK-OV-3 ovarian): 14.8 µM and > 100 µM
- GI50 (SR leukemia): 0.428 µM and 0.198 µM
- TGI (SR leukemia): 3.83 µM and 0.634 µM
- GI50 (CCRF-CEM leukemia): 0.191 µM
- TGI (CCRF-CEM leukemia): 5.34 µM
- TGI (PC-3 prostate): 15.4 µM and > 100 µM
- GI50 (MOLT-4 leukemia): 0.121 µM and 0.123 µM
- TGI (MOLT-4 leukemia): 5.1 µM and 4.65 µM
- TGI (MDA-MB-468 breast): 10.1 µM and > 100 µM
- GI50 (HL-60(TB) leukemia): 0.0811 µM and 0.0379 µM
- TGI (OVCAR-5 ovarian): 12 µM and > 100 µM
- TGI (MALME-3M melanoma): 11.2 µM and > 100 µM
- TGI (OVCAR-8 ovarian): 16.4 µM and > 100 µM
- TGI (SF-295 CNS): 13.7 µM and > 100 µM
- TGI (NCI-H522 lung): 15 µM and > 100 µM
- TGI (MDA-MB-435 melanoma): 11.6 µM and > 100 µM
- TGI (M14 melanoma): 11 µM and > 100 µM
- TGI (MDA-MB-231 breast): 14.4 µM and > 100 µM
- GI50 (KM12 colon): 0.713 µM and 0.388 µM
- GI50 (LOX IMVI melanoma): 25.4 µM
- TGI (LOX IMVI melanoma): > 100 µM
- TGI (UACC-62 melanoma): 11.4 µM and > 100 µM
- TGI (786-0 renal): 10.3 µM and > 100 µM
- GI50 (CAKI-1 renal): 0.686 µM and 0.698 µM
- TGI (SK-MEL-28 melanoma): 13 µM and > 100 µM
- TGI (DU-145 prostate): 14.6 µM and > 100 µM
- TGI (HT29 colon): 12.1 µM and > 100 µM
